Experiments:
[1] = biological target: T1, type II NADH:ubiquinone oxidoreductase (PfNDH2) (Plasmodium falciparum, UniProt Q8I302); assay: steady-state kinetics, competitive inhibition vs NADH; format: biochemical
T1 construct: gene PF3D7_0915000; His-tagged PfNDH2 (pET45, E. coli)
T1 sequence (Q8I302 31-533): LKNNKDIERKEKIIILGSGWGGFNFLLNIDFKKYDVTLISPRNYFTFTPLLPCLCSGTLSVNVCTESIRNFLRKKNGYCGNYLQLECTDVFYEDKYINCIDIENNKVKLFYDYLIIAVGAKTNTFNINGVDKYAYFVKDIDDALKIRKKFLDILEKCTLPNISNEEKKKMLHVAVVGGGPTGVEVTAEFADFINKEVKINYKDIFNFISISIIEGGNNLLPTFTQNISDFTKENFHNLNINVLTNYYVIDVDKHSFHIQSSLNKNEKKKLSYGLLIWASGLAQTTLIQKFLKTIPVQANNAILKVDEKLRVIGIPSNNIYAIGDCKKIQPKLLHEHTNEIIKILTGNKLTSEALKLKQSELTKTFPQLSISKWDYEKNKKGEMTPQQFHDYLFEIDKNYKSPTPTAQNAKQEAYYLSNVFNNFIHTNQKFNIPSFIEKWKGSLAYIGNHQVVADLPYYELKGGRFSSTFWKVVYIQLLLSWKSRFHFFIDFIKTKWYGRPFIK

[2] = biological target: T1, type II NADH:ubiquinone oxidoreductase (PfNDH2); assay: steady-state kinetics, competitive product inhibition vs NADH with naphthazarin as acceptor; format: biochemical

Row | Ki [2] [mM] | SMILES | Ki [1] [mM]
1 |  | Nc1ncnc2c1ncn2[C@@H]1O[C@H](COP(=O)(O)OP(=O)(O)OC[C@H]2OC(O)[C@H](O)[C@@H]2O)[C@@H](O)[C@H]1O (some centres unmarked) [ADP-ribose] | 2.5 ± 0.3
2 | 3.7 ± 0.4 | NC(=O)c1ccc[n+]([C@@H]2O[C@H](COP(=O)([O-])OP(=O)(O)OC[C@H]3O[C@@H](n4cnc5c(N)ncnc54)[C@H](O)[C@@H]3O)[C@@H](O)[C@H]2O)c1 [NAD^+] | 

Source: PMC11941790, “Reactions of Plasmodium falciparum Type II NADH: Ubiquinone Oxidoreductase with Nonphysiological Quinoidal and Nitroaromatic Oxidants” (International Journal of Molecular Sciences, 2025)
